Assay results reported in patent US7598032B2, “Thermostable DNA polymerases incorporating nucleoside triphosphates labeled with fluorescent dyes” (Roche Molecular Systems, priority 1997, dated 2009).

Assays:
[1] = target: T1, Thermus aquaticus (Taq) DNA polymerase variant G46D F667Y (Thermus aquaticus, UniProt P19821, F667Y/G46D); experiment: Limiting template primer extension competition assay (ddNTP incorporation), G46D F667Y Taq; format: biochemical
T1 construct: Expression vector pRDA3-2 contains the full-length Taq DNA polymerase gene; made in house; host or cells: E. coli DG116 (stated generally for the polymerases of the invention)
Protocol: (§1) The ability of the enzymes of this invention to efficiently incorporate nucleotides labeled with fluorescein family dyes is measured by ddNTP incorporation assays. One such assay is a primer extension competition assay conducted under conditions of limiting template. In this assay, a primer DG48 (5′-[…]), (SEQ ID NO: 11), bound to M13 mp18 template (Innis et al., 1988, Proc. Natl. Acad. Sci. USA 85:9436) is extended in the presence of [α-^33P]dCTP and excess enzyme with various levels of a fluorescently labeled ddNTP, Zowie-ddCTP. Because the incorporation of a ddCTP residue terminates the extension reaction, the more readily a DNA polymerase incorporates a ddCTP into an extended primer, the less [α-^33P]dCTP can be incorporated. Thus, as the efficiency of fluorescently labeled ddCTP incorporation increases, the extent of inhibition of DNA synthesis is increased. The reactions were also performed with various levels of an unlabeled ddCTP. […]
(§2) The relative abilities of G46D F667Y Taq, G46D F667Y E681K Taq and F730Y Tma30 DNA polymerases to incorporate a fluorescein dye family-labeled ddCTP were compared by use of a limiting template, primer extension competition assay. […] In this competition assay, because the incorporation of a ddCTP terminates the extension reaction, the more readily the polymerase incorporates a ddCTP into an extended primer, the less [α-^33P]dCTP can be incorporated. […]

[2] = target: F730Y Tma30 DNA polymerase (nucleotides 1-570 of Taq DNA polymerase with G46D fused to nucleotides 571-2679 of Tma DNA polymerase with D323A, E325A, F730Y); experiment: Limiting template primer extension competition assay (ddNTP incorporation), F730Y Tma30; format: biochemical, Thermus aquaticus / Thermotoga maritima; conditions: inhibition of DNA synthesis ([α-33P]dCMP incorporation); 20 μM each dNTP, M13 mp18/DG48, pH 8.3, 10 min; 2 units enzyme; read-out: Concentration of Zowie-ddCTP or ddCTP needed for 50% inhibition
Protocol: as §1, §2

T1 sequence (P19821 whole entry G46D/F667Y): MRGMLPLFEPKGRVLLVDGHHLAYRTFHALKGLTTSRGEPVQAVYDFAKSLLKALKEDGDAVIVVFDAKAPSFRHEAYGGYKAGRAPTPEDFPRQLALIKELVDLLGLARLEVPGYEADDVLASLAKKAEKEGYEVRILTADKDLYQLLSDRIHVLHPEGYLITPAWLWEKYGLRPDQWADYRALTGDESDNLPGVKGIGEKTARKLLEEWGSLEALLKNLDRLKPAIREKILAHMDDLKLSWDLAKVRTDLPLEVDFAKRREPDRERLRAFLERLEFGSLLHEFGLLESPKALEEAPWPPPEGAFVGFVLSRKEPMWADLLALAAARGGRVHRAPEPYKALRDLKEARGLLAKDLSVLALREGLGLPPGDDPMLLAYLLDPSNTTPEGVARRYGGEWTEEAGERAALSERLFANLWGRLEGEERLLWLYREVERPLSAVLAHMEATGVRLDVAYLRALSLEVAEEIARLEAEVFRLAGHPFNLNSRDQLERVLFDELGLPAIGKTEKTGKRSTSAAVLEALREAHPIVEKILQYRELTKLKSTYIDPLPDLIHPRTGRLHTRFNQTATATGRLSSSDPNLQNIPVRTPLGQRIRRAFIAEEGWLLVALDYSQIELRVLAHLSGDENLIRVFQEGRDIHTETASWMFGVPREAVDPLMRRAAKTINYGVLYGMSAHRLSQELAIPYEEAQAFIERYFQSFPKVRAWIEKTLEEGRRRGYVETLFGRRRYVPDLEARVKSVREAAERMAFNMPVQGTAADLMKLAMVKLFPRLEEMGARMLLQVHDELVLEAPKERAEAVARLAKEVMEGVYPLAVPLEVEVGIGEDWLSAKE

Structure (SMILES): Nc1ccn([C@H]2CC[C@@H](COP(=O)(O)OP(=O)(O)OP(=O)(O)O)O2)c(=O)n1 [ddCTP]
- IC50 [1]: 56 nM
- IC50 [2]: 57 nM
